Laboratory results: patent publication US6403651B1, “Mediation of circadian rhythms” (Luminis Pty Limited, priority 1997, dated 2002)

What was measured:
[1] = test system: light pulse induced phase delay in aMT.6S onset; experiment: Effect of serotonin antagonists on the melatonin response to a light pulse; assay type: in vivo, rat; conditions: metergoline 15 mg/kg or ritanserin 3 mg/kg at CT17.5, light 2 lux/1 minute at CT18
Protocol: Male albino wistar rats (100 g, n=5-10) were housed in metabolism cages in lightproof environment chambers in 12 hours of light followed by 12 hours of darkness, designated 12L:12D. After 3-4 days acclimation to a liquid diet (Osmolite HN) hourly urine collections commenced. The general experimental design was: Melatonin production was monitored by the urinary excretion of 6-sulphatoxymelatonin (aMT.6S), determined by radioimmunoassay. The time of onset of metabolite excretion was defined as the time of day that the excretion rate exceeded 20 pmol/h. To determine the effects of the serotonin antagonist, metergoline (15 mg/kg), ritanserin (3 mg/kg) and LY-53,857 (3 mg/kg) on the melatonin response to a light pulse, the drugs were administered at CT17.5. At CT18, a 2 lux light pulse was given for one minute. Using similar methodology the effects on c-fos induction in the SCN were determined.

[2] = test system: DOI induced c-Fos in the rat SCN; experiment: Effects of antagonists on DOI induced c-Fos in the SCN; assay type: in vivo
Protocol: As a check on the specificity of the response (SCN versus direct pineal effects) experiments were also conducted to monitor c-Fos induction in the SCN in response to the treatments. Animals were sacrificed by decapitation 2 hours after treatments. Brains were removed immediately and fixed by immersion in a 4% solution of paraformaldehyde in 0.1 M buffer (pH 7.4) at room temperature. After approximately 30 hours in the fixative solution at room temperature, the brains were briefly rinsed in phosphate buffered saline (PBS) and 70 μm coronal sections were obtained on a microtome. Free floating sections were permeabilised in a 0.3% solution of Triton X-100 in PBS at 4° C. overnight. […] The immunopositive cells were quantified using a computerised image analysis system.
To determine the effects of the antagonists on c-Fos induction in the SCN, ritanserin and ketanserin were injected in doses of 1.4, 0.7 and 0.14 μmole/kg at ZT 17.5. […] The response to ritanserin (6.3 μmole/kg) and ketanserin (18 μmole/kg) administered 30 minutes prior to saline injection at CT 18 was also determined.

[3] = test system: DOI induced phase delay in melatonin production; experiment: Effects of serotonin antagonists on the melatonin response to DOI; assay type: in vivo, rat; conditions: antagonist 0.07 μmole/kg 30 minutes prior to DOI (1.4 μmole/kg) at CT18
Protocol: (§1) Male albino wistar rats (100 g, n=5-10) were housed in metabolism cages in lightproof environment chambers in 12 hours of light followed by 12 hours of darkness, designated 12L:12D. After 3-4 days acclimation to a liquid diet (Osmolite HN) hourly urine collections commenced. The general experimental design was:
(§2) Melatonin production was monitored by the urinary excretion of 6-sulphatoxymelatonin (aMT.6S), determined by radioimmunoassay. The time of onset of metabolite excretion was defined as the time of day that the excretion rate exceeded 20 pmol/h.
The effects of the serotonin antagonists ritanserin and ketanserin on the melatonin response to DOI was determined. Both drugs were administered in doses of 0.7, 0.28 and 0.07 μmole/kg, 30 minutes prior to DOI (1.4 μmole/kg; 0.5 mg/kg) at CT 18; In addition, ritanserin (6.3 μmole/kg) and ketanserin (18 μmole/kg) were administered 30 minutes prior to saline injection at CT 18. Both antagonists were dissolved in DMSO and injected in a volume of 200 μl.

5-HT2c receptors = biological target: T1, 5-HT2c receptors (Homo sapiens, UniProt P28335); conditions: ritanserin versus ketanserin, stated as known; cited from earlier work
T1 sequence (P28335 33-458): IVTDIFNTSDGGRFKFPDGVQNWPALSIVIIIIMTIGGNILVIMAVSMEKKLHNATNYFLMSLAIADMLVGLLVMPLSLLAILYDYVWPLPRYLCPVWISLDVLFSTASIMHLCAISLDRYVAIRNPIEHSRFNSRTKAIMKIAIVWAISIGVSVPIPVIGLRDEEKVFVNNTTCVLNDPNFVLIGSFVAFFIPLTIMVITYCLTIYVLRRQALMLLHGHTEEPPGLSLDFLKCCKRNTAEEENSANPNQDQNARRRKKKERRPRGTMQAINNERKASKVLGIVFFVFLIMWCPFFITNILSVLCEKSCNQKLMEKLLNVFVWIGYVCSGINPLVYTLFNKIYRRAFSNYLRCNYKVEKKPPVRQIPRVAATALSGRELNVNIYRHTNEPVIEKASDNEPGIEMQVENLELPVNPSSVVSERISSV

[4] = test system: melatonin production (urinary aMT.6S excretion); experiment: 6-Sulphatoxymelatonin rhythmicity after agonist administration at CT18; assay type: in vivo, rat; conditions: DOI 0.5 mg/kg (1.4 μmole/kg) at CT18, rats in continuous darkness
Protocol: as §1
Night 1: Control collection-lights remained off from lights out for the remainder of the experiment.
Night 2: Drug administration or light pulses administered at CT 18, i.e., 6 hours after the subjective lights out. Urine collections were maintained throughout the subjective night.
Nights 3 & 4: Urine collections continued to determine any entraining effects of the stimuli.
as §2
Two lighting conditions were used to investigate the effects of drugs on SCN/pineal gland function; animals held in a light: dark cycle (L:D; Type VI method of Aschoff) and animals acutely transferred to continuous darkness (DD; Type II method of Aschoff) [Aschoff J. Response curves in circadian periodicity. In Aschoff J., ed. Circadian Clocks. Amsterdam: North Holland Publishing, 1965:95-111]. […]

[5] = test system: core body temperature rhythm; experiment: Core body temperature rhythm studies; assay type: in vivo, rat; conditions: DOI 0.5 mg/kg subcutaneously at CT18, rats
Protocol: Groups of 5 rats were implanted with temperature transmitters under 3% halothane/oxygen anaesthesia and kept in individual cages on a 12L: 12D photoperiod. Five days after implanting the transmitters, the lights were turned off at the normal time (ZT12) and remained off for 5 days. The animals were injected subcutaneously with either DOI (0.5 mg/kg) or saline vehicle at CT18 (ie 30 hours after last lights off). The temperature was sampled at 10 minute intervals. Five days after the drug treatment the animals were re-entrained to the LD cycle for 8 days and either exposed to a 5 minute/20 lux light pulse 30 hours after re-initiation of constant darkness or left untreated. To determine any delays in the temperature rhythm, the time of the day that the temperature dropped below the group daily mean (37.4° C.) was calculated and the mean delay±SEM determined.

**Q.** With CN1C[C@H](CNC(=O)OCc2ccccc2)C[C@@H]2c3cccc4c3c(cn4C)C[C@H]21 [metergoline] as the molecule, how does the “block of the phase delay in aMT.6S onset induced by the light pulse” value [1] read?
**A.** failure of the antagonists to block the phase delay

**Q.** Which results are given for O=C(c1ccc(F)cc1)C1CCN(CCn2c(=O)[nH]c3ccccc3c2=O)CC1 [ketanserin]?
**A.** number of cells positive for c-Fos per unilateral SCN after DOI ([2]; antagonist 0.7 μmole/kg 30 minutes before DOI (1.4 μmole/kg)): significantly greater (P<0.05) than those observed following ritanserin 0.7 μmole/kg but not significantly different from the vehicle control; effect on DOI induced phase delay in melatonin production [3]: ineffective

**Q.** For Cc1nc2sccn2c(=O)c1CCN1CCC(=C(c2ccc(F)cc2)c2ccc(F)cc2)CC1 [ritanserin], which “affinity for 5-HT2c receptors relative to ketanserin” value (5-HT2c receptors) is on record?
**A.** 10 fold

**Q.** What about the “inhibition of the increase in appearance of c-Fos caused by a 5-HT2c high affinity compound” value ([2]; comparison of ritanserin with ketanserin pre-treatment) of the same molecule?
**A.** greater effect than ketanserin

**Q.** What about the “block of the phase delay in aMT.6S onset induced by the light pulse” value [1] of the same molecule?
**A.** failure of the antagonists to block the phase delay

**Q.** And the “effect on DOI induced phase delay in melatonin production” value [3]?
**A.** inhibits

**Q.** Which “melatonin metabolite (aMT.6S) excretion immediately following injection” value [4] does the source give for COc1cc(CC(C)N)c(OC)cc1I (racemic) [DOI, (+/−)-1-(4-iodo-2,5-dimethoxy-phenyl)-2-aminopropane] here?
**A.** acute decrease

**Q.** And the “morning decline in body temperature” value [5]?
**A.** significantly delayed
